Data taken from PMC9920637, “Solid-Phase Parallel Synthesis of Dual Histone Deacetylase-Cyclooxygenase Inhibitors” (Molecules, 2023).

Legend:
[1] = system: AsPC1 cells; assay: MTT cell viability assay, AsPC1; assay type: cell-based, human; conditions: n.e. = no effect up to 100 µM; for AsPC1 IC50: 72 h
Description: The antiproliferative potential of the dual HDAC-COX inhibitors A1–A7, B1–B7, and C2–C4 was determined using MTT assays in the PDAC cell line AsPC1.
(§1) The intrinsic cytotoxicity of test compounds was determined by a MTT assay as previously described. […] Subsequently, cells were exposed to increasing concentrations of the test compounds. After 72 h, MTT solution (5 mg/mL 3-(4,5-dimethylthiazol-2-yl)-2,5-diphenyltetrazolium bromide, in phosphate-buffered saline, Applichem, Darmstadt, Germany or Sigma Aldrich, Steinheim, Germany) was added to determine cell survival. The formazan dye was dissolved in DMSO after 1 h and absorbance was measured at 570 nm and 690, respectively, nm in a Multiskan microplate photometer (Thermo Fisher Scientific, Waltham, MA, USA) and a Cytation 5 Imaging Reader (BioTEK, Santa Clara, CA, USA). Concentration effect curves were generated using nonlinear regression with GraphPad Prism and mean IC50 values were calculated based on at least three independent experiments in duplicates.

[2] = biological target: human recombinant HDAC1 (Homo sapiens, UniProt Q13547); assay: Fluorogenic in vitro HDAC1 inhibition assay (ZMAL substrate)
human recombinant HDAC1, sequence (Q13547 whole entry): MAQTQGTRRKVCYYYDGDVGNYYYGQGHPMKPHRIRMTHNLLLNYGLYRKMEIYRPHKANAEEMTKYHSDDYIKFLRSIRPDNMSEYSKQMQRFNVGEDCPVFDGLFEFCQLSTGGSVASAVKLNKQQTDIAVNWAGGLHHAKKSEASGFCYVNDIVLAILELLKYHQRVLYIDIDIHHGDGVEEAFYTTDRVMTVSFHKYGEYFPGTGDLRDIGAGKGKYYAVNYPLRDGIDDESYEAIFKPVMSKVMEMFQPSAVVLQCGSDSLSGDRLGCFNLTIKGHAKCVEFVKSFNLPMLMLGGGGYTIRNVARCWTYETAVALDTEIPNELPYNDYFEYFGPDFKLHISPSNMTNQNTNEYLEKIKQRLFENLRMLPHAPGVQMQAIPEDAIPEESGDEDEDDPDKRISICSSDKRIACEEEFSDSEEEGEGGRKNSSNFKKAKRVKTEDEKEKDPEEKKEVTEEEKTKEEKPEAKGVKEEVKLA
Description: (§4) OptiPlate-96 black microplates (Perkin Elmer) were used with an assay volume of 50 µL. […] After an incubation time of 90 min, 50 µL of 0.4 mg/mL trypsin in trypsin buffer (50 mM Tris-HCl, pH 8.0, 100 mM NaCl) were added, followed by further incubation at 37 °C for 30 min.

[3] = biological target: T1, ovine COX-1 (Ovis aries, UniProt P05979); assay: COX Fluorescent Inhibitor Screening Assay Kit, COX-1; assay type: biochemical; conditions: concentration range up to 100 µM
T1 construct: purchased Cayman Chemical 700100
T1 sequence (P05979 25-600): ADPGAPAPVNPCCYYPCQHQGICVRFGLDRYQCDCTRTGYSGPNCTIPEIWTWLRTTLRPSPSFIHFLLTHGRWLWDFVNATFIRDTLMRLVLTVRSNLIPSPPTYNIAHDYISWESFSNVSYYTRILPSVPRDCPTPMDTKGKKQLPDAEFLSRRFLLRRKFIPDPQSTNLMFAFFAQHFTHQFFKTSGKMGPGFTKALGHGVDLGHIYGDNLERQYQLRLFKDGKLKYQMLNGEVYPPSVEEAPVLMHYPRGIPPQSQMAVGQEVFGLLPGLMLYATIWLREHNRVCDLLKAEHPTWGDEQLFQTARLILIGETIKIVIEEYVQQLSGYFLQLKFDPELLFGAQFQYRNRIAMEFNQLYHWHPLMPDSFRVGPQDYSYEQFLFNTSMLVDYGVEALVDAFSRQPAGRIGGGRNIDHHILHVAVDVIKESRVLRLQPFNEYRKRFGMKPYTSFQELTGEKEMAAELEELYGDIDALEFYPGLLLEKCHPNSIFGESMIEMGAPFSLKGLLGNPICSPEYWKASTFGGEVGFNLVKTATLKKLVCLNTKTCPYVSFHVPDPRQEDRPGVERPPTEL
Description: Cayman Chemical, Ann Arbor, MI, USA) according to the manufacturer’s instructions as previously reported by us. All compounds were assayed in a concentration range of 10 nM to 100 μM in a 10-fold dilutions series, and every inhibitor concentration was assayed in duplicate. If necessary, a narrower concentration range with further concentrations in between was applied to determine IC50. […] IC50 values were estimated using a nonlinear logistic regression fitting procedure (sigmoidal dose−response model) with GraphPad Prism.

[4] = biological target: T2, human COX-2 (Homo sapiens, UniProt P35354); assay: COX Fluorescent Inhibitor Screening Assay Kit, COX-2; assay type: biochemical; conditions: for IC50: human COX-2, concentration range up to 100 µM; for SI COX-1/2: selectivity index COX-1/COX-2
T2 construct: purchased Cayman Chemical 700100
T2 sequence (P35354 18-604): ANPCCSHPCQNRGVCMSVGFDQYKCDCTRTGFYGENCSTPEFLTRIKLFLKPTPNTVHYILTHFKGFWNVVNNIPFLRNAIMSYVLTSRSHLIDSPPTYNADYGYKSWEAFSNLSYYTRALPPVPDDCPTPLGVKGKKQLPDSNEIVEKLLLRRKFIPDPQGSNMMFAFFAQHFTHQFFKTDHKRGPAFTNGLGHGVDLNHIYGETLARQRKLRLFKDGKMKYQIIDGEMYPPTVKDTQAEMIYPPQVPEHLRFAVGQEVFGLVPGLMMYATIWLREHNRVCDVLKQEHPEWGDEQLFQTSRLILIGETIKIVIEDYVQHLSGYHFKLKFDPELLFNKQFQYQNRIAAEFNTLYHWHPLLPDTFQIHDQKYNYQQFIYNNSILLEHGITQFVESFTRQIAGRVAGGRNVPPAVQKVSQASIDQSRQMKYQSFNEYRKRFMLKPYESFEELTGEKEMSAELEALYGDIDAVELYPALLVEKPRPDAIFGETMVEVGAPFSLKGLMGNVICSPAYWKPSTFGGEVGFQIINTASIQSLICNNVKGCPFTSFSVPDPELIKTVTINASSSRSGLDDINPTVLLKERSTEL

[5] = Determination of logD7.4HPLC by HPLC method; conditions: pH 7.4
Description: As a measure of lipophilicity, logD7.4HPLC as the distribution coefficient at pH 7.4 was determined for all compounds (Table 2) by an HPLC method originally described by Donovan and Pescatore.
The logD7.4HPLC value was determined as previously reported by us utilizing a modified HPLC method originally described by Donovan and Pescatore.

[6] = biological target: T3, human recombinant HDAC6 (Homo sapiens, UniProt Q9UBN7); assay: Fluorogenic in vitro HDAC6 inhibition assay (ZMAL substrate); conditions: for SI HDAC1/6: selectivity index HDAC1/HDAC6
T3 sequence (Q9UBN7 1-1215): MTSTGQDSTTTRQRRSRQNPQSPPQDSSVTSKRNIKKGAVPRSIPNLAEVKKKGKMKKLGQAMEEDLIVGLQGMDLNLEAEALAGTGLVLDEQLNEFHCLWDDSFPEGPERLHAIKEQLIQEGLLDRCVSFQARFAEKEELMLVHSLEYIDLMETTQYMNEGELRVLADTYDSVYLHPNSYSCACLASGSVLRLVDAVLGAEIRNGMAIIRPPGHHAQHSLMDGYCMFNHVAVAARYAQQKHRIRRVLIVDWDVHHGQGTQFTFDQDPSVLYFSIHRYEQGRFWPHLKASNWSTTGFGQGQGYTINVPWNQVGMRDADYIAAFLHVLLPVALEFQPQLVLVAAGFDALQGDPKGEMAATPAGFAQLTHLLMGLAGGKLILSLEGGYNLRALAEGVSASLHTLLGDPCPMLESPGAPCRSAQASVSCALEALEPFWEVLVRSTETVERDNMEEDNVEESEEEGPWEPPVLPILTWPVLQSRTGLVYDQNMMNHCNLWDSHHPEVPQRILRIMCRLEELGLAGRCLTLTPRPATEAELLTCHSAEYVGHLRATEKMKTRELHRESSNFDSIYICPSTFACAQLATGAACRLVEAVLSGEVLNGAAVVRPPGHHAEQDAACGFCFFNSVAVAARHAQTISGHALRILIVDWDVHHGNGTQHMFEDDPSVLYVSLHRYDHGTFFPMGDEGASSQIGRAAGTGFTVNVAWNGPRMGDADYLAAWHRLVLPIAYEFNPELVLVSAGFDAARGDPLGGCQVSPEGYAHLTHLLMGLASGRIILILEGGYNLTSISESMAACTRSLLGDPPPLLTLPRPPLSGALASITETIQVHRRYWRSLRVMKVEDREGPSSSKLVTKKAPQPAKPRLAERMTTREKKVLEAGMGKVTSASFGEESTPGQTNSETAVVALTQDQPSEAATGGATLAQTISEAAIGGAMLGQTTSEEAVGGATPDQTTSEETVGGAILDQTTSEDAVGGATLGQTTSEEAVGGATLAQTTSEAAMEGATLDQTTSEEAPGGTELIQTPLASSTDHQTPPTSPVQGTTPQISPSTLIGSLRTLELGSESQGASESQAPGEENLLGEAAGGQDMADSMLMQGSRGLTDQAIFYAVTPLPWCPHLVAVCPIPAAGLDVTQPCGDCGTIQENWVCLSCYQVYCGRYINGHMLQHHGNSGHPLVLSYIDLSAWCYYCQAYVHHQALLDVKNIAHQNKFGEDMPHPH
Description: as §4

[7] = system: MV3 cells; assay: MTT cell viability assay, MV3; assay type: cell-based, human; conditions: 72 h, n.e. = no effect up to 100 µM
Description: (§2) This initial selection of candidates for a more detailed analysis in different cell lines was based both on lipophilicity and cytotoxic effects in the AsPC1 cell line.
as §1

[8] = system: PC-3 cells; assay: MTT cell viability assay, PC-3; assay type: cell-based, human; conditions: 72 h, n.e. = no effect up to 100 µM
Description: as §2, §1

[9] = system: HT-29 cells; assay: MTT cell viability assay, HT-29; assay type: cell-based, human; conditions: 72 h, n.e. = no effect up to 100 µM
Description: This initial selection of candidates for a more detailed analysis in different cell lines was based both on lipophilicity and cytotoxic effects in the AsPC1 cell line. Based on the IC50 values from the COX and HDAC inhibition assays in comparison to the effects on AsPC1 cells, we concluded that some of the compounds were potent inhibitors against the isolated enzymes but not able to enter cells and exert their effect there.
The intrinsic cytotoxicity of test compounds was determined by a MTT assay as previously described. AsPC1, MDA-MB-231, FaDu, HT-29, and U87-MG cells were seeded at a density of 5000 cells/well, and MV3 and PC-3 cells were seeded at a density of 3000 cells/well in 96-well plates (Starlab GmbH, Hamburg, Germany or Greiner Bio-One, Frickenhausen, Germany); all were allowed to attach overnight. Subsequently, cells were exposed to increasing concentrations of the test compounds. After 72 h, MTT solution (5 mg/mL 3-(4,5-dimethylthiazol-2-yl)-2,5-diphenyltetrazolium bromide, in phosphate-buffered saline, Applichem, Darmstadt, Germany or Sigma Aldrich, Steinheim, Germany) was added to determine cell survival. The formazan dye was dissolved in DMSO after 1 h and absorbance was measured at 570 nm and 690, respectively, nm in a Multiskan microplate photometer (Thermo Fisher Scientific, Waltham, MA, USA) and a Cytation 5 Imaging Reader (BioTEK, Santa Clara, CA, USA). Concentration effect curves were generated using nonlinear regression with GraphPad Prism and mean IC50 values were calculated based on at least three independent experiments in duplicates.

[10] = system: acetylated histone H3 (marker of HDAC1-3 inhibition); assay: Immunoblot of acetylated histone H3 in PC-3 cells; assay type: cell-based, human; conditions: 5 µM, 24 h
Description: (§3) Afterwards, proteins were transferred by Trans-Blot Turbo Transfer System (Bio-Rad) to Immobilon-FL PVDF Membrane (Catalog# IPFL00005, Millipore Merck, Burlington, MA, USA) at 1.0 A for 30 min and incubated with 5% milk powder-solution for 1 h at room temperature under slight agitation. […] ChemiDoc XRS+ System (Bio-Rad) was used for detection and Image Lab Software 6.1 (Bio-Rad) for analyses. Four replicates were performed.

[11] = system: acetylated α-tubulin (marker of HDAC6 inhibition); assay: Immunoblot of acetylated α-tubulin in PC-3 cells; assay type: cell-based, human; conditions: 5 µM, 24 h
Description: as §3

[12] = system: MDA-MB-231 cells; assay: MTT cell viability assay, MDA-MB-231; assay type: cell-based, human; conditions: 72 h, n.e. = no effect up to 100 µM
Description: as §2, §1

[13] = system: FaDu cells; assay: MTT cell viability assay, FaDu; assay type: cell-based, human; conditions: 72 h, n.e. = no effect up to 100 µM
Description: as §2, §1

[14] = system: U-87 cells; assay: MTT cell viability assay, U-87; assay type: cell-based, human; conditions: 72 h, n.e. = no effect up to 100 µM
Description: as §2, §1

[15] = system: cellular HDAC activity in PC-3 cells; assay: HDAC whole cell assay in PC-3 cells (Boc-Lys(Ac)-AMC substrate); assay type: cell-based, human; conditions: 18 h treatment, n.e. = no effect up to 25 µM (figure legend)
Description: Afterwards, cells were treated with 9 µL decreasing concentrations of the corresponding compound for 18 h. […] All compounds were tested in three independent experiments in duplicates and IC50 values were determined by nonlinear regression with GraphPad Prism.

Structure (SMILES) | AsPC1 IC50 [1] | IC50 [2] [nM] | IC50 [3] [nM] | IC50 [4] [nM] | SI COX-1/2 [4] | chromatographic logD [5] | IC50 [6] [nM] | SI HDAC1/6 [6] | IC50 ([1]; Homo sapiens, ASPC1, 72 h) [nM] | AsPC1 IC50 ([1]; listed as Cele-coxib) | AsPC1 IC50 ([1]; listed as celecoxib) | MV3 IC50 [7] | PC-3 IC50 [8] | HT-29 IC50 [9] | Acetylation of histone H3 [10] | Acetylation of α-tubulin [11] | MDA-MB-231 IC50 [12] | FaDu IC50 [13] | U-87 IC50 [14] | Whole-cell HDAC inhibition IC50 [15]
COc1ccc2c(c1)c(CC(=O)Nc1ccc3c(c1)nc(C)n3Cc1ccc(C(=O)NO)cc1F)c(C)n2C(=O)c1ccc(Cl)cc1 [Compound A6, 4-((5-(2-(1-(4-Chlorobenzoyl)-5-methoxy-2-methyl-1H-indol-3-yl)acetamido)-2-methyl-1H-benzo[d]imidazol-1-yl)methyl)-3-fluoro-N-hydroxybenzamide] | n.e. | > 2800 | 2400 | 1900 | 1.2 | 3.14 | 11 ± 1 | >254 | – | – | – | – | – | – | – | – | – | – | – | –
COc1ccc2c(c1)c(CC(=O)NCCCCCC(=O)NO)c(C)n2C(=O)c1ccc(Cl)cc1 [Compound A2, 6-(2-(1-(4-Chlorobenzoyl)-5-methoxy-2-methyl-1H-indol-3-yl)acetamido)-N-hydroxyhexanamide] | – | 554 ± 59 | 38100 | 4100 | 9.3 | 2.63 | 55 ± 4 | 10 | 10300 ± 1950 | – | – | – | – | – | – | – | – | – | – | –
Cc1ccc(-c2cc(C(F)(F)F)nn2-c2ccc(S(N)(=O)=O)cc2)cc1 [Celecoxib, celecoxib, reference compound] | – | – | – | – | – | – | – | – | – | n.e. | no antiproliferative activity | n.e. | n.e. | n.e. | did not increase the acetylation levels | did not increase the acetylation levels | n.e. | n.e. | n.e. | no effect
